Biological target: T1, Solute carrier family 12 member 5 (Homo sapiens, UniProt Q9H2X9)
T1 sequence (Q9H2X9 whole entry): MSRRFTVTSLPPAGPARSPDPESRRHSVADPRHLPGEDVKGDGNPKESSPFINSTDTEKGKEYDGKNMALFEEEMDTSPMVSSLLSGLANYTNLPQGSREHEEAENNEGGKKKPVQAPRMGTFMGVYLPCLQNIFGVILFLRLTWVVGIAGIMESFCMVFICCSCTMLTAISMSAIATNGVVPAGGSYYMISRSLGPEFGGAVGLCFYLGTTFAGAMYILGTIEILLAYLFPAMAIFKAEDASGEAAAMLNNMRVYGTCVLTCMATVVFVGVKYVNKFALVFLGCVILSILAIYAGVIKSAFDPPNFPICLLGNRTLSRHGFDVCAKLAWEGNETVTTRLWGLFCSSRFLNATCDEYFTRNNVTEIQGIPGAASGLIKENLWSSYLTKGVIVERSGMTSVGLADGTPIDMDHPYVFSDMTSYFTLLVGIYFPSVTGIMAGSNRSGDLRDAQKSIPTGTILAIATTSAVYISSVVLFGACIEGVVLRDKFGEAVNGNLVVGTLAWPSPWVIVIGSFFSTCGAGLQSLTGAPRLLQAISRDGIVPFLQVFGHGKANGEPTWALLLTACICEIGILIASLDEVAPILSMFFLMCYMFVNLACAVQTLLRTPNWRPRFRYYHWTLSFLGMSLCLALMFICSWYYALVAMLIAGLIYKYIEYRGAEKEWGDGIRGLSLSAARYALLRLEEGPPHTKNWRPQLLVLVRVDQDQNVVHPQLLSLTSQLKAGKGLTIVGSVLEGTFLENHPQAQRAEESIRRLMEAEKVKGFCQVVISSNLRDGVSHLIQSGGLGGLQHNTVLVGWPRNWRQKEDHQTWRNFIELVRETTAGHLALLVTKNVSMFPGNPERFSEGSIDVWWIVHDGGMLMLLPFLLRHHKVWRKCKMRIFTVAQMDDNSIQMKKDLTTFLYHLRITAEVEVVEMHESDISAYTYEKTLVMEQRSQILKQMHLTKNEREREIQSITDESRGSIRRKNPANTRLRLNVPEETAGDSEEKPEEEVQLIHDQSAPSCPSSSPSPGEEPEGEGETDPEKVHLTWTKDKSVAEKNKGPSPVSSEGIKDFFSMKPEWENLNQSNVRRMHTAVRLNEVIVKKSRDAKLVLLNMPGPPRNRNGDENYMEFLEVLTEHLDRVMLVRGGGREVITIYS
Assay: concentration-response of KCC2 transport modulators – cell-based, HEK293 KCC2, FluoZin-2 fluorescence, dose response (AID 1736)

[1] = inactive by the depositor's call

In the case of `O=C(Nc1cccnc1)c1ccc(COc2ccccc2Br)o1` [5-[(2-bromanylphenoxy)methyl]-N-pyridin-3-yl-furan-2-carboxamide], the EC50 is reported as 5.19 µM.
Compound `CN1/C(=C\C(=S)NC(=O)c2cccc(Br)c2)C(C)(C)c2ccccc21` [SMR000254682] has an EC50 of 3.68 µM.
Work on `O=C(O)CCn1c(SCc2cccc3ccccc23)nc2ccccc21` [3-[2-(1-naphthalenylmethylthio)-1-benzimidazolyl]propanoic acid] yielded an EC50 of 0.619 µM.
Work on `O=C(Cn1nnc(-c2ccccc2-n2cnnn2)n1)NCc1ccccc1` [MLS000073516] yielded an EC50 [1] of 24 µM.
Compound `CS(=O)(=O)N(CC(=O)N1CCN(c2ccc(F)cc2)CC1)c1ccc(F)c(Cl)c1` [MLS000531433] has an EC50 of 7.63 µM.
`O=C(OCC(=O)N1CCN(C(=O)c2ccco2)CC1)c1sc2ccccc2c1Cl` [3-chloro-1-benzothiophene-2-carboxylic acid [2-[4-[2-furanyl(oxo)methyl]-1-piperazinyl]-2-oxoethyl] ester] was tested, and the EC50 was 0.599 µM.
`Cc1cccc(-c2nc(C[S+]([O-])CC(=O)N3CCc4ccccc4C3)c(C)o2)c1` (stereo not drawn) [1-(3,4-dihydro-1H-isoquinolin-2-yl)-2-[[5-methyl-2-(3-methylphenyl)-1,3-oxazol-4-yl]methylsulfinyl]ethanone] gave an EC50 of 5.03 µM.
`COc1cccc(CNC(=O)CSc2ccc(-c3cccs3)nn2)c1` [MLS000621194] was tested, and the EC50 was 34.2 µM.
For `O=[N+]([O-])c1ccc(NC2CCN(Cc3ccccc3)CC2)c([N+](=O)[O-])c1` [(1-benzyl-4-piperidyl)-(2,4-dinitrophenyl)amine], the EC50 [1] was 5.49 µM.
`O=C(NCCOc1ccccc1F)c1ccccc1SCc1ccc(F)cc1` [2-[(4-fluorobenzyl)thio]-N-[2-(2-fluorophenoxy)ethyl]benzamide] showed an EC50 of 0.313 µM.
Work on `c1ccc(-c2nnc(Sc3ncnc4c3cnn4-c3ccccc3)[nH]2)cc1` [SMR000019566] yielded an EC50 of 12.3 µM.
`COc1ccccc1NC(=S)NNC1=c2cc(Br)ccc2=NC1=O` [MLS000778253] gave an EC50 of 0.363 µM.
`O=C(Cn1cnc2c(nnn2-c2ccccc2)c1=O)NCCc1ccccc1` [2-(7-keto-3-phenyl-triazolo[4,5-d]pyrimidin-6-yl)-N-phenethyl-acetamide] gave an EC50 of 1.17 µM.
Work on `O=C(CSc1ccc(-c2ccccc2)nn1)Nc1ccc2c(c1)OCCO2` [MLS000724887] yielded an EC50 of 31 µM.
Work on `Sc1nnc(Cc2c[nH]c3ccccc23)o1` [5-(1H-indol-3-ylmethyl)-1,3,4-oxadiazole-2(3H)-thione] yielded an EC50 of 3.76 µM.
Work on `Fc1cccc(F)c1C=NNC(=S)Nc1cccnc1` [1-[(2,6-difluorobenzylidene)amino]-3-(3-pyridyl)thiourea] yielded an EC50 of 5.9 µM.
`O=C(NCc1cccs1)c1nc2c(nnn2Cc2ccc(F)cc2)c(=O)[nH]1` [MLS000074753] showed an EC50 of 9.9 µM.
`COc1ccc(C(c2nnnn2Cc2cccs2)N2CCN(c3ccccc3F)CC2)cc1` (stereo not drawn) [1-(2-Fluoro-phenyl)-4-[(4-methoxy-phenyl)-(1-thiophen-2-ylmethyl-1H-tetrazol-5-yl)-methyl]-piperazine] gave an EC50 [1] of 13.2 µM.
With `CC1Cc2ccccc2N1C(=O)CN(C)S(=O)(=O)c1cccc2cccnc12` (stereo not drawn) [MLS000523063] the EC50 was 19.5 µM.
`COc1ccccc1-n1cnc2cc(NS(=O)(=O)c3ccccc3)ccc21` [MLS000032522] was tested, and the EC50 was 101 µM.
`O=C(CSc1nccc(=O)[nH]1)N1CCc2ccccc2C1` [SMR000124078] showed an EC50 of 9.12 µM.
Compound `CCOc1ccc2nc(Sc3cc(O)n(-c4cccc(OC)c4)c3O)sc2c1` [3-(6-Ethoxy-benzothiazol-2-ylsulfanyl)-1-(3-methoxy-phenyl)-pyrrolidine-2,5-dione] has an EC50 of 9.38 µM.
`COc1cc(C=NNC(=O)CN(Cc2ccccc2)S(=O)(=O)c2ccc3c(c2)OCCO3)ccc1O` [2,3-Dihydro-benzo[1,4]dioxine-6-sulfonic acid benzyl-(4-hydroxy-3-methoxy-benzylidene-hydrazinocarbonylmethyl)-amide] showed an EC50 of 3.15 µM.
`O=C(O)c1cc([N+](=O)[O-])ccc1NCc1ccccc1` [2-(benzylamino)-5-nitro-benzoic acid] showed an EC50 of 4.96 µM.
Work on `O=[N+]([O-])c1ccc(CSc2nnc(SCc3ccccc3)s2)cc1` [2-(benzylthio)-5-[(4-nitrobenzyl)thio]-1,3,4-thiadiazole] yielded an EC50 of 11.2 µM.
Compound `O=C(CN1C(=O)NC2(CCCC2)C1=O)Nc1nc(-c2ccc(F)cc2)cs1` [2-(2,4-diketo-1,3-diazaspiro[4.4]nonan-3-yl)-N-[4-(4-fluorophenyl)thiazol-2-yl]acetamide] has an EC50 of 0.231 µM.
For `CC(=O)NCCC(=O)N1CCCC(CNC(=O)c2ccc(-c3ccccc3)cc2)C1` (stereo not drawn) [MLS000733794], the EC50 was 8.13 µM.
Compound `COc1ccc(S(=O)(=O)N(CCC(=O)O)Cc2ccccc2)cc1` [3-[(4-methoxyphenyl)sulfonyl-(phenylmethyl)amino]propanoic acid] has an EC50 [1] of 6.36 µM.
With `CC1CCN(C(=O)c2ccc(SCc3ccccc3F)c([N+](=O)[O-])c2)CC1` [1-{4-[(2-fluorobenzyl)thio]-3-nitrobenzoyl}-4-methylpiperidine] the EC50 was 1.94 µM.
`O=C(NNc1nc(-c2ccccc2)cs1)c1cccs1` [MLS000858987] was tested, and the EC50 was 0.252 µM.
Work on `CCC(C)(C)n1nnnc1C(c1ccc(O)c(OC)c1)N1CCN(c2nc3ccccc3s2)CC1` (stereo not drawn) [4-[(1-tert-amyltetrazol-5-yl)-[4-(1,3-benzothiazol-2-yl)piperazino]methyl]-2-methoxy-phenol] yielded an EC50 [1] of 9.05 µM.
In the case of `Cc1c(N=C2Nc3cccc4cccc2c34)c(=O)n(-c2ccccc2)n1C` [4-(2-benzo[cd]indolylamino)-1,5-dimethyl-2-phenyl-3-pyrazolone], the EC50 is reported as 1.89 µM.
Work on `O=C(Cn1c(-c2ccccc2)noc1=O)N1CCC(Cc2ccccc2)CC1` [4-[2-(4-benzylpiperidin-1-yl)-2-oxoethyl]-3-phenyl-1,2,4-oxadiazol-5-one] yielded an EC50 [1] of 39.6 µM.
Work on `O=C(CC(Cc1ccccc1)c1ccco1)NC1CCCCC1` (stereo not drawn) [MLS000556612] yielded an EC50 of 2.68 µM.
`O=C(O)/C=C/c1cn(Cc2ccccc2)nc1-c1ccccc1` [MLS000567315] was tested, and the EC50 was 13700 µM.
With `COc1ccc(-n2cnnc2SCC(=O)Nc2cc(S(=O)(=O)N3CCCCC3)ccc2C)cc1` [2-[[4-(4-methoxyphenyl)-1,2,4-triazol-3-yl]sulfanyl]-N-(2-methyl-5-piperidin-1-ylsulfonyl-phenyl)ethanamide] the EC50 was 4.63 µM.
`O=C(CNC(=O)/C(=C\c1ccc(Br)cc1)NC(=O)c1ccccc1)OCc1ccccc1` [(phenylmethyl) 2-[[(E)-2-benzamido-3-(4-bromophenyl)prop-2-enoyl]amino]ethanoate] was tested, and the EC50 was 1.2 µM.
`Cc1cccc(OCCc2nnc(N)s2)c1C` [5-[2-(2,3-Dimethyl-phenoxy)-ethyl]-[1,3,4]thiadiazol-2-ylamine] showed an EC50 of 52.3 µM.
Compound `O=C(NCc1ccc2c(c1)OCO2)c1ccc(COc2cc(Cl)ccc2Cl)o1` [5-[(2,5-dichlorophenoxy)methyl]-N-piperonyl-2-furamide] has an EC50 of 6.51 µM.
In the case of `O=C(CSc1nnc(-c2ccc(O)cc2)n1Cc1ccco1)N1CCc2ccccc2C1` [1-(3,4-Dihydro-1H-isoquinolin-2-yl)-2-[4-furan-2-ylmethyl-5-(4-hydroxy-phenyl)-4H-[1,2,4]triazol-3-ylsulfanyl]-ethanone], the EC50 is reported as 15.3 µM.
`COc1ccc(N(CC(=O)Nc2ccc(C)c(C)c2)S(=O)(=O)c2c(C)n[nH]c2C)cc1` [SMR000027403] gave an EC50 [1] of 35.1 µM.
Work on `O=c1c(-c2cnn(-c3ccccc3)c2)coc2cc(O)ccc12` [7-hydroxy-3-(1-phenyl-1H-pyrazol-4-yl)-4H-chromen-4-one] yielded an EC50 of 20.1 µM.
Work on `O=S(=O)(NCCc1ccccc1F)c1cccc(S(=O)(=O)N2CCOCC2)c1` [MLS000076090] yielded an EC50 of 4040 µM.
